In one data set the test system is MOA. Particulars: in vivo in rats, tryptamine potentiation test; Kaiser / Zirkel 1962; cited from earlier work.
A further data set deals with T1, human 5-HT2A receptor (Homo sapiens, UniProt P28223).
T1 construct: expressed in transfected cells; host or cells: HEK-293
Description: Functional activity by Ca++-flux (intracellular calcium mobilization), 5-HT2A. Particulars: for EC50: Ca++-flux, HEK-293 cells, NA = not active. It is filed as cell-based. The protocol: The functional activity of the compounds for the human 5-HT2A, human 5-HT2B, and human 5-HT2C receptors is determined by measurement of Ca++-flux as detailed in the Examples, in transiently transfected HEK-293 cells and the results are summarized in Table I. Structures of compounds listed in Table I are given in Scheme 15.
The functional activity of compounds for the human 5-HT2A, human 5-HT2B, and human 5-HT2C receptors as agonists, partial agonists and antagonists is determined by measurement of Ca++-flux. The results are summarized in Table 1 where EC50 for different receptors are given (nM) and the ratio of activities 2A/2C and 2B/2C are also given. As noted above, other methods for assessing agonist/antagonist function of compounds for 5-HT2 family receptors are known in the art.
(§1) For these studies stably expressing lines of h5-HT2A, h5-HT2B, and h5-HT2C receptors are prepared in HEK-293 cells. For the h5-HT2A and h5-HT2C-INI receptors, stably expressing HEK-293 cell lines were constructed as previously described using a pIRES-NEO vector system (See: Rauser et al, J Pharmacol Exp Ther 299: 83-89, 2001).
(§2) Stable cell lines were plated with ˜40,000 cells/well into uncoated (3T3 cells) or poly-L-lysine coated (HEK293 cells) 96-well plates in DMEM supplemented with 5% dialyzed FBS. 16-24 hrs post-plating, the medium was aspirated and replaced with 30 μl/well of Calcium Assay Kit Component A Dye (Molecular Devices; Sunnyvale, Calif.) dissolved in 30 ml/bottle of assay buffer (2.5 mM probenecid, 20 mM Hepes, and 1× Hanks' Balanced Salt Solution (Invitrogen; Carlsbad, Calif.) (138 mM NaCl, 5.3 mM KCl, 1.3 mM CaCl2, 0.49 mM MgCl2, 0.41 mM MgSO4, 0.44 mM KH2PO4, 0.34 mM Na2HPO4) pH 7.4. Plates were incubated in the dye for 1 hr at 37° C. Dilutions were made in assay buffer as 2× stocks and added to 96-well drug plates. Fluorometric imaging was performed using a FlexStation II plate reader (Molecular Devices) reading the plate at 1.5 second intervals for 1 min. After establishing a fluorescent baseline (excitation at 485 nm and emission at 525 nm, using a […] cutoff), the FlexStation II automatically transferred 30 μl of 2× drug stocks from the drug plate to the cell plate at the 20 second time point with reading for another 40 seconds. Peak relative fluorescence units (RFU) were subtracted from baseline RFUs using SoftMax Pro (Molecular Devices) and values were imported into GraphPad Prism version 4.03 (GraphPad Software; San Diego, Calif.) for analysis. Ca++-flux studies are very convenient for initial screening of large numbers of compounds for agonist activity.
Compounds are resuspended in DMSO at a stock concentration of 2-15 mM and, for a typical agonist screen, are diluted in assay buffer to a final 2× concentration of 20 μM into drugs plates. Compounds are added in duplicate to cell plates using the FlexStation II as described to identify agonists, defined as having >10% of maximal 5-HT response. […] Generally, screens are performed twice with each determination being made in duplicate. Typical Z′-factor (Zhang et al., 1999) values for agonist screens ranged from 0.61-0.79 (5-HT2AR), 0.42-0.81 (5-HT2BR) and 0.38-0.72 (5-HT2CR); these Z′-factor values are adequate for screening studies in which N=2 determinations are made and the screens replicated for a total of N=4 determinations.
(§3) Compounds identified by primary screens to be agonists are subsequently used in concentration-response experiments to verify the initial observations and obtain agonist potencies. Concentration-response studies are performed in triplicate or quadruplicate at each concentration and repeated three times. Baseline-subtracted RFU values imported into GraphPad Prism are analyzed by non-linear regression to obtain pEC50 values, and normalized to maximal 5-HT response to obtain relative efficacies.

A further data set has as its target T2, human 5-HT2C receptor (Homo sapiens, UniProt P28335).
T2 construct: expressed in transfected cells; host or cells: HEK-293
T2 sequence (P28335 33-458): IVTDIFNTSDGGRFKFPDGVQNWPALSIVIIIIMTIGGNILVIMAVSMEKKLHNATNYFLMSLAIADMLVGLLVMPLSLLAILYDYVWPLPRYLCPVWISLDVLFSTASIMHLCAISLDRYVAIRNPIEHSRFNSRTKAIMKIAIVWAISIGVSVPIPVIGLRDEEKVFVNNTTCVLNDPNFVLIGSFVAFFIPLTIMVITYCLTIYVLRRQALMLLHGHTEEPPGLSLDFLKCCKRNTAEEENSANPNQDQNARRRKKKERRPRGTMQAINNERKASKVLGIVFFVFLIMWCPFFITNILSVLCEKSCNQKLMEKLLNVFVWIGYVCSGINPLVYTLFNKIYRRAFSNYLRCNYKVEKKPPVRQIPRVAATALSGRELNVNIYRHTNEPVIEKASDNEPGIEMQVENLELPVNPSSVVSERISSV
Description: Functional activity by Ca++-flux (intracellular calcium mobilization), 5-HT2C. It is filed as cell-based. Particulars: for EC50: Ca++-flux, HEK-293 cells, NA = not active, read-out: 5-HT2C human EC50; for 2A/2C ratio: ratio of EC50 5-HT2A / 5-HT2C; for 2B/2C ratio: ratio of EC50 5-HT2B / 5-HT2C. How it is done: The functional activity of compounds for the human 5-HT2A, human 5-HT2B, and human 5-HT2C receptors as agonists, partial agonists and antagonists is determined by measurement of Ca++-flux. […] As noted above, other methods for assessing agonist/antagonist function of compounds for 5-HT2 family receptors are known in the art.
as §1, §2
Compounds are resuspended in DMSO at a stock concentration of 2-15 mM and, for a typical agonist screen, are diluted in assay buffer to a final 2× concentration of 20 μM into drugs plates. Compounds are added in duplicate to cell plates using the FlexStation II as described to identify agonists, defined as having >10% of maximal 5-HT response. […] Generally, screens are performed twice with each determination being made in duplicate.
as §3
Background: A change in cytosolic calcium serves as a functional read-out for many receptors and channels.

The target in another data set is T3, human 5-HT2B receptor (Homo sapiens, UniProt P41595).
T3 construct: expressed in transfected cells; host or cells: HEK293 (ATCC CRL-1573), retroviral infection with pBabepuro-FLAG-h5-HT2BR, polyclonal line
The data set is described as follows: Functional activity by Ca++-flux (intracellular calcium mobilization), 5-HT2B. Format: cell-based.

Another data set concerns 6 Hz seizure model. The data set is described as follows: 6 Hz seizure model in mice. It is filed as in vivo. Particulars: 100 mg/kg i.p.
Where [1] appears, read: Ca++-flux, HEK-293 cells, NA = not active, read-out: 5-HT2B human EC50.

Read-outs that look alike come from different tables or passages of the source.

The values that follow come from patent publication US20090203750A1, “5-HT2C Receptor Agonists as Anorectic Agents” (priority 2005, published 2009).

T3 sequence (P41595 whole entry): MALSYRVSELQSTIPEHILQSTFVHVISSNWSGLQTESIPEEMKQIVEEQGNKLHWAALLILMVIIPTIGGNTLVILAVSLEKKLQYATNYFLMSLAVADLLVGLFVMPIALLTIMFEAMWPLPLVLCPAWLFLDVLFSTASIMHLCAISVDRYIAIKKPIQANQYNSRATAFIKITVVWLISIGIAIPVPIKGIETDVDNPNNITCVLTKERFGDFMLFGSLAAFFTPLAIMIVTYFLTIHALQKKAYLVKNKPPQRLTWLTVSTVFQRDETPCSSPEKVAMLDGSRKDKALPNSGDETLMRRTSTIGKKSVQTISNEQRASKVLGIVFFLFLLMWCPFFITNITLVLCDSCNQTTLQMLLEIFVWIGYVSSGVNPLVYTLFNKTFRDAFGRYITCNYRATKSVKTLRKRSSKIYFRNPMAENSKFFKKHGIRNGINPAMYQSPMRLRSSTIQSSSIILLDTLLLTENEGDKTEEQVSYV
T1 sequence (P28223 whole entry): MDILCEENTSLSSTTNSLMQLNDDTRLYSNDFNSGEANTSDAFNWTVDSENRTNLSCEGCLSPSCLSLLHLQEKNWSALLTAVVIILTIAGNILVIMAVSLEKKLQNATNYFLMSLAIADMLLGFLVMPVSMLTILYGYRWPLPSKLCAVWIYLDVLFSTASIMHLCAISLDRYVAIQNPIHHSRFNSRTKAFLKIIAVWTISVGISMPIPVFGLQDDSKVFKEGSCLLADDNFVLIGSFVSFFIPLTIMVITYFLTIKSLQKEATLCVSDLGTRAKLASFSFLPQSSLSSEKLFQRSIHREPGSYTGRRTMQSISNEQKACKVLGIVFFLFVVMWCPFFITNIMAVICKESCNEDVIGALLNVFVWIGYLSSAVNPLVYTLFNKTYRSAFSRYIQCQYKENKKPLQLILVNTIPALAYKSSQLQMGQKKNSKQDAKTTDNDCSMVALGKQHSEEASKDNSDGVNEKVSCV

As to “trans-aminomethyl-2-phenylcyclopropylamine”, the “inhibition of MOA” value in the data set on MOA was “not to inhibit MOA”.
A word on the EC50: it is the concentration that produces a half-maximal response. For “cis-(±)-(2-Phenyl-cyclopropyl)-methylamine Hydrochloride [TKU-II-19]”, at human 5-HT2A receptor, the “activity at 5-HT2A receptor” value is “poorly active” and the EC50 amounted to 0.705 µM. In addition, on human 5-HT2C receptor, the “activity at 5-HT2C receptor” value is “poorly active”, the EC50 is 0.152 µM, the 2A/2C ratio is 4.64 and the 2B/2C ratio is given as 2.03. Moreover, the “activity at 5-HT2B receptor” value at human 5-HT2B receptor is listed as “poorly active”. Further, at human 5-HT2B receptor (setting [1]), the concentration giving a half-maximal response (EC50) was 0.308 µM.
As for `c1ccc(CN[C@@H]2C[C@H]2c2ccccc2)cc1` (racemic) [TKU-II-30, trans-(±)-Benzyl-(2-phenyl-cyclopropyl)-amine], the EC50 at human 5-HT2A receptor amounted to 9790 µM. On human 5-HT2C receptor, the EC50 stood at 10.5 µM, the 2A/2C ratio is on record as 929.5 and the 2B/2C ratio was 1020. Also, at human 5-HT2B receptor, the EC50 came out at 10700 µM.
“trans-(±)-[2-(4-Bromo-phenyl)-cyclopropyl]-methylamine Hydrochloride [TKU-II-44]”: at human 5-HT2A receptor, the EC50 came to 1.06 µM. Further, at human 5-HT2C receptor, the 50% effective concentration (EC50) was determined as 0.18 µM, the 2A/2C ratio was 5.90 and the 2B/2C ratio was determined as 2.75. Moreover, the EC50 at human 5-HT2B receptor (setting [1]) was 0.495 µM.
“trans-(±)-(2-Phenyl-cyclopropyl)-methylamine Hydrochloride [TKU-II-17]”: on human 5-HT2A receptor (Hydrochloride), the half-maximal effective concentration (EC50) turned out to be 0.0497 µM. Besides, at human 5-HT2C receptor (Hydrochloride), the EC50 was found to be 0.0096 µM, the 2A/2C ratio turned out to be 5.18 and the 2B/2C ratio is recorded as 1.94. Moreover, at human 5-HT2B receptor (Ca++-flux, HEK-293 cells, NA = not active, Hydrochloride, read-out: 5-HT2B human EC50), the concentration giving a half-maximal response (EC50) turned out to be 0.0186 µM. Further, the motor impairment entry in the data set on 6 Hz seizure model (15-60 minutes after dosing) was “minimal motor impairment”. In the data set on 6 Hz seizure model (after four hours), the “animals protected from seizure” value was “three of the four”.
As to “trans-(±)-(2-Naphthalen-2-yl-cyclopropyl)-methylamine hydrochloride [TKU-II-42]”, the concentration for a half-maximal effect (EC50) on human 5-HT2A receptor amounted to 0.951 µM. On human 5-HT2C receptor, the concentration for a half-maximal effect (EC50) is 6.75 µM, the 2A/2C ratio worked out at 0.14 and the 2B/2C ratio stood at 2.29. For the same molecule, the EC50 at human 5-HT2B receptor (setting [1]) came to 15.4 µM.
For “trans-(±)-[2-(4′-Trifluoromethyl-biphenyl-4-yl)-cyclopropyl]-methylamine Hydrochloride [TKU-II-58]” the same measures were 3.41 µM, 0.226 µM, 15.1, 5.62 and 1.27 µM.
For “trans-(±)-[2-(3-Fluoro-phenyl)-cyclopropyl]-methylamine Hydrochloride [TKU-II-99]” the same measures were 0.0634 µM, 0.0632 µM, 1.0, 74 and 4.68 µM.
Broadly, the Emax is the maximal effect, on the per cent scale that the assay sets. “trans-(±)-[2-(2-Bromo-phenyl)-cyclopropyl]-methylamine Hydrochloride [TKU-II-78]”: at human 5-HT2A receptor, the EC50 came to 0.0295 µM. Further, on human 5-HT2C receptor, the “activity at 5-HT2C receptor” value is “partial agonist activity”, the EC50 was determined as 0.0018 µM, the 2A/2C ratio stood at 16.4 and the 2B/2C ratio is reported as 52.2. Moreover, the maximal response (Emax) at the 5-HT2C receptor on human 5-HT2C receptor (partial agonist activity) is 58%. At human 5-HT2B receptor (setting [1]), the EC50 was 0.094 µM.
Take “trans-(±)-[2-(2-Fluoro-phenyl)-cyclopropyl]-methylamine Hydrochloride [TKU-II-100]”: the EC50 on human 5-HT2A receptor was determined as 0.00062 µM. For the same molecule, at human 5-HT2C receptor, the “activity at 5-HT2C receptor” value is listed as “good potency”, the EC50 was 0.00066 µM, the 2A/2C ratio is reported as 0.94 and the 2B/2C ratio is given as 0.3. At human 5-HT2B receptor (setting [1]), the 50% effective concentration (EC50) amounted to 0.0002 µM.
Take “trans-(±)-[2-(4′-Chloro-biphenyl-2-yl)-cyclopropyl]-methylamine Hydrochloride [TKU-II-119]”: the concentration for a half-maximal effect (EC50) came out at 0.215 µM on human 5-HT2A receptor, 0.00254 µM at human 5-HT2C receptor and 0.0637 µM at human 5-HT2B receptor (setting [1]). Besides, the 2A/2C ratio at human 5-HT2C receptor came out at 85. For the same molecule, the 2B/2C ratio on human 5-HT2C receptor came out at 25.
